Target: adrenergic β1 receptor (Homo sapiens, UniProt P08588)
Experiment: Ligand binding assay on adrenergic β1 receptor arrays printed on microcolumns
Details: 5 nM labeled ligand, microcolumn #1, about one hour incubation
Method: These glass microcolumns were coated with a thin gold layer and functionalized with GAPS. […] To assay ligand binding, the microcolumns were inserted into the wells of an 1×8-Stripwell plate (Corning®) containing a fluorescently-labeled β1 receptor ligand (bodipy-TMR CGP12177) (5 nM) in a ligand binding buffer (50 mM Tris-HCl, 2 mM EDTA, 1 mM MgCl2, pH 7.4, 0.1% BSA). […] Following incubation of about one hour, the microcolumns were removed, washed, and scanned to assess ligand binding on the array.

Sequence of adrenergic β1 receptor (P08588 whole entry): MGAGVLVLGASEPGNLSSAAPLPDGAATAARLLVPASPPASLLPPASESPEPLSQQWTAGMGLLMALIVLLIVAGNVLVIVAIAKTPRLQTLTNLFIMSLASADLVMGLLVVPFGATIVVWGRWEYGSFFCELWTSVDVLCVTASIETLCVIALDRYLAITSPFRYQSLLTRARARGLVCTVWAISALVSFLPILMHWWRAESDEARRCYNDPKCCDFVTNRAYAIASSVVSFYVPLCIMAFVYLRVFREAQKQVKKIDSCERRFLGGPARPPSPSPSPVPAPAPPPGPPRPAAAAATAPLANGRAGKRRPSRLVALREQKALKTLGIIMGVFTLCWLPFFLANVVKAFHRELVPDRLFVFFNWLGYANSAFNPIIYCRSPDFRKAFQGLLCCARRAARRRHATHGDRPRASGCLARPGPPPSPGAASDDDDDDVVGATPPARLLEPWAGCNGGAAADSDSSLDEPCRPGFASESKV

For bodipy-TMR CGP12177, the “Binding of fluorescently-labeled ligand to the β1 receptor array (fluorescent signal)” value was “high fluorescent signal”.

Source: US7332328B2, “Microcolumn-platform based array for high-throughput analysis” (Corning Incorporated, priority 2001, dated 2008)
